Test results taken from patent US6911432B2, “Drugs, foods or drinks with the use of algae-derived physiologically active substances” (priority 1997, dated 2005).

Tests used:
[1] = tested on: RAW 264.7 cells; assay: NO production induced by LPS, NO2- concentration in medium; format: cell-based, mouse; conditions: for inhibition of NO production (in words): RAW264.7, aqueous 100 mM solution used as sample
Description: (1) RAW 264.7 cells (ATCC TIB 71) were suspended in phenol red-free Dulbecco's modified Eagle's medium containing 10% fetal bovine serum (manufactured by Gibco) and 2 mM L-glutamine (manufactured by Life Technologies Oriental, 25030-149) at a concentration of 3×10^5 cells/ml, and 500 μl portions thereof were seeded to respective wells of a 48-well microtiter plate and incubated at 37° C. for 12 hours in the presence of 5% CO2. To each well were added 10 μl of 25 μg/ml lipopolysaccharide (LPS, manufactured by Sigma, L-2012) and 10 μl of aqueous 5000, 1500, 500, 150 or 50 μM agarobiose or neoagarobiose (manufactured by Sigma, G4410) solution, and the plate was incubated for additional 12 hours. Then, concentration of NO2^− produced by oxidation of NO in the medium was measured. As control groups, a group to which LPS was not added and a group to which agarobiose or neoagarobiose was not added were provided.
After incubating as described above, 100 μl of 4% Greece reagent (manufactured by Sigma, G4410) was added to 100 μl of the medium, and the mixture was allowed to stand for 15 minutes at room temperature. Then, the absorbance at 490 nm was measured. NO2^− concentration in the medium was calculated with reference to a calibration curve prepared by using NaNO2 at given concentrations dissolved in the same medium as that described above. All the measurements were carried out in triplicate.
(2) A suspension of 5 g of commercially available agar (Ina agar type S-7, manufactured by Ina Shokuhin Kogyo) in 45 ml of 0.1 N HCl was treated at 95° C. for 13 minutes. After cooling to room temperature, the suspension was neutralized with NaOH and filtered through 0.22 μm MILLEX-GP filter (manufactured by Milipore, SLGPR25LS). […] Namely, 10 μl of 25 μg/ml LPS and 10 μl of a 20-fold dilution of the sample mentioned above were added to wells of a 48 well microtiter plate containing RAW264.7 cells which had been incubated in the wells. The measurement was carried out with the culture medium. As control groups, a group to which LPS was not added, a group to which a sample was not added and a group to which 2.5 mM citric acid was added were provided. All the measurement were carried out in duplicate.

[2] = tested on: HL-60 cells; assay: antiproliferation assay, MTT method, absorbance at 590 nm; format: cell-based, human; conditions: for antiproliferation activity against HL-60 cells (in words): preparations and fractions, compared with control to which water was added
[3] = tested on: lipid peroxide radical production; assay: inhibition of lipid peroxide radical production (tert-butyl hydroperoxide, bacterial growth readout); format: cell-based, Staphylococcus aureus 3A; design: key to growth of the bacterium (activity of inhibiting lipid peroxide radical production): + represents the sample in which the growth of the bacterium was observed; −represents the sample in which the growth of the bacterium was not observed
Description: Staphylococcus aureus 3A (National Collection Of Type Culture, NCTC 8319) was inoculated into 5 ml of brain heart infusion medium (manufactured by Difco, 0037-17-8) and cultured at 37° C. overnight. The bacterial cells were collected by centrifugation, washed with phosphate buffered saline 3 times and then suspended in phosphate buffered saline at a concentration of 1×10^7 colony forming units/ml. A mixture of 100 μl of the cell suspension, 100 μl of an aqueous sample solution, 100 μl of aqueous 1 mg/ml methemoglobin (manufactured by Sigma M9250) solution, 600 μl of phosphated buffered saline and 100 μl of aqueous 50 mM tert-butyl hydroperoxide (manufactured by Katayama Kagaku, 03-4990) solution were reacted at 37° C. for 30 minutes. To the reaction mixture was added 1 ml of 2×NMP medium [prepared by dissolving 8 g of nutrient broth (manufactured by Difco, 0003-01-6), 5 g of trypton (manufactured by Difco, 0123-17-3), 5 g of NaCl, 10 g of mannitol (manufactured by Nacalai Tesque, 213-03) and 0.035 g of phenol red (manufactured by Nacalai Tesque, 268-07) in distilled water to make the volume up to 500 ml. The pH was adjusted to 7.5 with NaOH and then the mixture was sterilized by filtration] to stop the reaction. The resultant mixture was diluted every 3-folds with NMP medium (prepared by diluting 2×NMP medium 2-folds with sterilized water) to prepare 12 serial dilutions and 160 μl of each dilution was placed in each well of a 96-well microtiter plate. The plate was incubated at 37° C. overnight.
In Table 14, + represents the sample in which the growth of the bacterium was observed, and −represents the sample in which the growth of the bacterium was not observed. The concentration shown in the uppermost line of the table is that of the sample in the reaction mixture in which the sample was reacted with tert-butyl hydroperoxide and the bacterial cells at 37° C. for 30 minutes.

[4] = tested on: HL-60 cells; assay: viable cell count with Trypan Blue under a microscope; format: cell-based, human; conditions: final concentration 250 μM or 125 μM
Description: Agarobiose, agarotetraose, agarohexaose and agarooctaose (hereinafter, sometimes, these oligosuccharaides are referred to as agarooligosaccharides) obtained in Example 5 were dissolved in water at a concentration of 2.5 mM or 1.25 mM separately, and were sterilized by filtration. HL-60 cells were suspended in RPMI 1640 medium containing 10% fetal bovine serum at a concentration of 2.5×10^5 cells/4.5 ml and to this suspension was added 0.5 ml of each of the oligosaccharide solutions. The resultant mixture were incubated with 5% CO2 at 37° C. for 24 hours or 48 hours. A part of the cell culture was taken up, followed by addition of Trypan Blue thereto and observing under a microscope to count the number of viable cells.
That is, FIG. 14 illustrates the relation between the incubation time and the number of viable cells when HL-60 cells were cultured with addition of one of the oligosaccharides at the final concentration of 250 μM. FIG. 15 illustrates the relation between the incubation time and the number of viable cells when HL-60 cells were cultured with addition of one of the oligosaccharides at the final concentration of 125 μM. In FIGS. 14 and 15, the horizontal axes represent the incubation time (hrs.) and the vertical axes represent the number of viable cells (× 10^5/5 ml). The closed circle (●) represents the addition of water (control), the open diamond (⋄) represents the addition of agarobiose, the open circle (◯) represents the addition of agarotetraose, the open triangle (Δ) represents the addition of agarohexaose and the open square (□) represents the addition of agarooctaose.

[5] = tested on: HL-60 cells; assay: apoptosis-inducing assay, cell morphology under an optical microscope; format: cell-based, human
Description: Human promyelocytic leukemia cell HL-60 (ATCC CCL-240) was incubated at 37° C. in RPMI 1640 medium (manufactured by Gibco) supplemented with 10% of fetal bovine serum (JRH Bioscience) which had been treated at 56° C. for 30 minutes, and suspended in the same medium at a concentration of 500 cells/90 μl. Each 90 μl portion of the suspension was distributed into each well of a 96 well plate (manufactured by Falcon). To the suspension in each well was added 10 μl of the above-mentioned acid decomposition solution, a 10-fold dilution of the solution or water, and incubated with 5% CO2 at 37° C. After 24 hour and 48 hour from the initiation of the incubation, the cell morphology was observed under an optical microscope. Then, according to the MTT method described in “Apoptosis Jikken Protocol” (Syuzyun-sha, Tanuma, Seiichi ed., pp. 156 (1994)), 5 mg/ml of 3-(4,5-dimethylthiazole-2-yl)-2,5-diphenyltetrazolium bromide (manufactured by Sigma) and 10 μl of phosphate buffered saline solution were added to the culture and the incubation was continued for additional 4 hours. Then, 100 μl of 2-propanol containing 0.04 N hydrochloric acid was added to the culture, and the mixture was thoroughly stirred. An absorbance at 590 nm was measured and the number of viable cells was calculated from the absorbance measured for each of the wells, which was compared each other.
Each elution peak was fractionated, collected, evaporated to dryness under reduced pressure and then dissolved in 300 μl of water. Each fraction was sterilized by filtration and its 10 μl portion was placed in a well of a 96 well microtiter plate. Then, 90 μl of RPMI 1640 medium (manufactured by Nissui) containing 10% fetal bovine serum (manufactured by Gibco) and 5,000 HL-60 cells (ATCC CCL-240) was added thereto, followed by incubation at 37° C. for 48 hours with 5% CO2. The cell morphology was observed under an optical microscope. Then, 5 mg/ml 3-(4,5-dimethylthiazole-2-yl)-2,5-diphenyltetrazolium bromide and 10 μl of phosphate buffered saline solution were added thereto and the incubation was continued for additional 4 hours. To the culture was added 100 μl of 2-propanol containing 0.04 N hydrochloric acid and the resultant mixture was thoroughly stirred. The absorbance at 590 nm was measured to determine a cell proliferation rate.

OC[C@H]1OC(O)[C@H](O)[C@@H](O[C@@H]2O[C@H]3CO[C@@H]([C@@H]2O)[C@@H]3O)[C@H]1O (stereo partly drawn) [neoagarobiose, reference compound]
inhibition of NO production induced by LPS (in words) ([1]; RAW 264.7, 10 μl of 5000 to 50 μM solution per 500 μl well, 12 hours): did not

CO[C@H](C=O)[C@@H]1OC[C@H](O)[C@H]1O[C@@H]1O[C@H](CO)[C@H](O)[C@H](O)[C@H]1O [β-D-galactopyranosyl-(1→4)-3,6-anhydro-2-O-methyl-L-galactose]
antiproliferation activity against HL-60 cells (in words) [2]: strong antiproliferation activity | antiproliferation activity against HL-60 cells (in words) ([2]; listed as group 3): an antiproliferation activity was observed

O=C[C@H](O)[C@@H](O)[C@@H](O)[C@H](O)CO [Galactose, galactose, reference compound]
growth of the bacterium (activity of inhibiting lipid peroxide radical production) ([3]; 0.1 mM sample in the reaction mixture): − | growth of the bacterium (activity of inhibiting lipid peroxide radical production) ([3]; 1 mM sample in the reaction mixture): − | inhibition of NO production (in words) [1]: did not

agarooctaose
apoptosis corpuscles [4]: apoptosis corpuscles were observed | number of viable cells as compared with the group to which water was added ([4]; 24 hours or 48 hours): decreased

O=C[C@H](O)[C@H]1OC[C@@H](O)[C@@H]1O [3,6-anhydro-D-galactose]
inhibition of NO production (in words) [1]: inhibited NO production

O=C[C@@H](O)[C@@H]1OC[C@H](O)[C@H]1O [3,6-anhydro-L-galactose]
absorbance at 590 nm relative to that of the control group to which water was added ([2]; HL-60, final concentration of 1 mM): less than one-half | apoptosis corpuscles ([5]; final concentration of 1 mM): apoptosis corpuscles were observed

O=C[C@H](O)[C@H]1OC[C@@H](O)[C@@H]1O[C@@H]1O[C@H](CO)[C@H](OS(=O)(=O)O)[C@H](O)[C@H]1O [κ-carabiose, β-D-galactopyranosyl-4-sulfate-(1→4)-3,6-anhydro-D-galactose]
cell proliferation suppressed as compared with the control group ([2]; HL-60, κ-carabiose at 156 μM): about 70% | antiproliferation activity against HL-60 cells (in words) [2]: cell proliferation was inhibited | apoptosis corpuscles under an optical microscope ([5]; 156 μM): apoptosis corpuscles were observed | apoptosis-inducing activity (apoptosis corpuscles, in words) ([5]; preparations and fractions): apoptosis corpuscles were observed
